Test results reported in patent US10076522B2, “Systems and methods for treating bacterial infection” (priority 2016, dated 2018).
Structures can show the parent of a compound that is named as a salt.

What was measured:
[1] = Acute IV toxicity in rats; details: rat, in vivo
[2] = Acute IV toxicity in the mouse; format: in vivo
in vivo = details: both; for NOAEL at 28 day: marmoset
Method: A repeated-dose, 4-week toxicity study was conducted in male and female rats, where single, daily IV bolus doses up to 60 mg/kg were given. […] A 28-day toxicity study was also conducted in male and female marmosets, where iclaprim mesylate was infused intravenously over a 20-minute interval.

[3] = pH of a 1% solution in water; format: physicochemical
physchem [4] = test: physchem
physchem [5] = details: 20 °C, water
[6] = test system: acute bacterial skin and skin structure infections (ABSSSIs) suspected or confirmed to be due to Gram-positive pathogens; test: Phase III REVIVE-1 study, efficacy of fixed dose iclaprim versus vancomycin; format: in vivo, human; details: ITT
Method: Subjects were evaluated daily up to ETP, then every 48 to 72 hours through the end of treatment. If the last dose of study drug fell on a day when an evaluation was not planned, an additional evaluation visit was performed on that day (i.e., all EOT evaluations were performed on the last day [+2 days] of drug dose).
The infusion time and duration of treatment for both groups was 2 hours and 5 days (minimum duration) to 14 days (maximum duration), respectively.
The primary endpoint for clinical response (defined as the reduction in lesion size ≥20% compared to baseline) was evaluated in all randomized subjects at ETP (48 to 72 hours post-first dose). […] In addition, clinical outcome was evaluated by the investigator at EOT and TOC (7 to 14 days post EOT). The assessments of clinical outcome was categorized as cure, failure, or indeterminate.
Iclaprim was administered at a dose of 80 mg in 500 mL normal saline, infused over 2 hours q12h (every 12 hours) for 5 to 14 days. For subjects with moderate hepatic impairment (Child-Pugh Class B), iclaprim was administered at a dose of 40 mg in 500 mL normal saline, infused over 2 hours q12h for 5 to 14 days.
Dosing interval was every q12 h, q24 h, q48 h, or dosed by daily level based on creatinine clearance.
The primary efficacy endpoint was the proportion of randomized subjects who achieved an early clinical response (defined as reduction in the lesion size ≥20% compared to baseline) at 48 to 72 hours (ETP) and was evaluated among all randomized subjects (ITT population).
The NI bound were 10%. […] Equivalently, if the lower bound of the two-sided 95% CI for P1-P2 was greater than −0.100 based on the Z test with unpooled variance estimate, NI was concluded.

[7] = Phase III REVIVE-1 study, safety (adverse events); details: REVIVE-1 safety population
Method: All subjects who received any study drug were evaluated for safety on the basis of medical history and physical examinations, reports of clinical AEs, routine electrocardiography, and clinically significant findings from routine liver function tests, serum chemistry, hematology, coagulation, and urinalysis (UA) tests. All adverse events were recorded throughout the study period, up to and including the LFU phone call. While blinded to treatment assignment, the investigator categorized the severity of each AE and the potential for relationship to study drug. Serious AEs (SAEs) include those that were life threatening, led to prolongation of the existing hospitalization, a congenital anomaly/birth defect, or caused persistent or significant disability, incapacity, or death. Treatment-emergent AEs (TEAEs) were defined as those that start or worsen in severity during or after the first dose of study drug administration through end of study.
Safety evaluation included incidence of TEAEs, laboratory test results (including liver function tests), vital signs, ECG results, and physical examination findings. All summaries of safety data was based on the safety population (all treated subjects).
The AE summary tables included subject (patient) counts. Therefore, if a subject experienced more than one episode of a particular AE, the subject was counted only once for that event. If a subject had more than one AE that was coded to the same preferred term, the subject was counted only once for that preferred term. Similarly, if a subject had more than one AE within a SOC, the subject was counted only once in that SOC.

[8] = in vivo, iv; cited from earlier work
[9] = human, in vivo

Q: Which results are given for `COc1cc(Cc2cnc(N)nc2N)c2c(c1OC)OC(C1CC1)C=C2` (racemic) [iclaprim mesylate, 5-[(2RS)-2-cyclopropyl-7,8-dimethoxy-2Hchromen-5-ylmethyl] pyrimidine-2,4-diamine methanesulfonate]?
A: LD50 ([1]; female rats): > 200 mg/kg; LD50 ([1]; male rats): 150 to 200 mg/kg; HED of lowest lethal IV dose [2]: 6.1 mg/kg; lowest lethal IV dose [2]: 75 mg/kg; NOAEL at 28 day (in vivo): 3.9 mg/kg/day; NOAEL at 28 day (in vivo; iv): 30 mg/kg/day; dosage with histopathological changes at the injection sites (in vivo; rat, iv, 4 week): ≥ 10 mg/kg/day; NOAEL at 4 week (in vivo; rat, iv, HED of NOAEL): 3.9 mg/kg/day; NOAEL at 4 week (in vivo; rat, iv, NOAEL): > 30 mg/kg/day; pH value of a 1% solution in water [3]: 4.2; pKa (physchem [4]): 7.2; solubility (physchem [5]): ~10000 µg/mL

Q: What does the source list for `CN[C@H](CC(C)C)C(=O)N[C@H]1C(=O)N[C@@H](CC(N)=O)C(=O)N[C@H]2C(=O)N[C@H]3C(=O)N[C@H](C(=O)N[C@H](C(=O)O)c4cc(O)cc(O)c4-c4cc3ccc4O)[C@H](O)c3ccc(c(Cl)c3)Oc3cc2cc(c3O[C@@H]2O[C@H](CO)[C@@H](O)[C@H](O)[C@H]2O[C@H]2C[C@](C)(N)[C@H](O)[C@H](C)O2)Oc2ccc(cc2Cl)[C@H]1O` [Vancomycin, vancomycin, reference compound]?
A: Early Clinical Response (ECR), percent of subjects ([6]; ETP (48 to 72 hours)): 81.0%; Clinical cure, number of subjects ([6]; TOC (7 to 14 days after study drug discontinuation)): 261; Clinical cure, percent of subjects ([6]; TOC): 87.0%; Deaths, number of subjects [7]: 1; Deaths, percent of subjects [7]: 0.3%; Study drug related TEAEs, number of subjects [7]: 53; Study drug related TEAEs, percent of subjects [7]: 17.8%; TEAE-related SAEs (Serious AEs), number of subjects [7]: 12; TEAE-related SAEs (Serious AEs), percent of subjects [7]: 4.0%; TEAEs (Treatment Emergent Adverse Events), number of subjects [7]: 128; TEAEs (Treatment Emergent Adverse Events), percent of subjects [7]: 43.1%; TEAEs leading to discontinuation of study drug, number of subjects [7]: 13; TEAEs leading to discontinuation of study drug, percent of subjects [7]: 4.4%

Q: For `CC[C@H]1OC(=O)[C@H](C)[C@@H](O[C@H]2C[C@@](C)(OC)[C@@H](O)[C@H](C)O2)[C@H](C)[C@@H](O[C@@H]2O[C@H](C)C[C@H](N(C)C)[C@H]2O)[C@](C)(OC)C[C@@H](C)C(=O)[C@H](C)[C@@H](O)[C@]1(C)O` [clarithromycin], which QTc prolongation [8] is on record?
A: 3 to 11 ms

Q: For `CC(=O)NC[C@H]1CN(c2ccc(N3CCOCC3)c(F)c2)C(=O)O1` [linezolid, reference compound], which “adverse events related to QTc prolongation” value [9] is on record?
A: 2 cases
